Assay results: US8461107B2 (Merck Sharp & Dohme Corp., priority 2008, dated 2013)

Molecular target: T1, HCV genotype 1b (BK) NS3 modified with a R155K mutation (Hepatitis C virus genotype 1b, UniProt P26663, R1181K)
T1 construct: HCV genotype 1b (BK) NS3 modified with a R155K mutation
Test: HCV NS3 protease time-resolved fluorescence (TRF) assay, NS3 protease 1b R155K Ki activity
Format: biochemical
Conditions: HCV genotype 1b (BK) NS3 with R155K mutation; TRF peptide substrate 100 nM; Ki derived from IC50
In short: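 Pre-incubation of NS3/NS4A protease (genotype 1b BK, R155K) with inhibitor for 30 min, then 1 h at room temperature with 100 nM TRF peptide substrate in pH 7.5 HEPES buffer with 10 mM DTT. Reaction quenched with pH 5.5 MES; time-resolved fluorescence read (ex 340/em 615 nm). Ki derived from four-parameter IC50 fit via IC50=Ki(1+[S]/KM).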

## CC[C@@H]1C[C@]1(NC(=O)[C@@H]1C[C@@H]2CN1C(=O)[C@H](C(C)(C)C)NC(=O)O[C@@H]1CCC[C@H]1CCCCCn1c(cc3cc(OC)ccc3c1=O)O2)C(=O)NS(=O)(=O)C1CC1 [(3aR,7S,10S,12R,25aR)-7-tert-butyl-N-((1R,2R)-1-{[(cyclopropylsulfonyl)amino]carbonyl}-2-ethylcyclopropyl)-16-methoxy-5,8,19-trioxo-1,2,3,3a,5,6,7,8,11,12,21,22,23,24,25,25a-hexadecahydro-10H,19H-9,12-methanocyclopenta[18,19][1,10,3,6,12]dioxatriazacyclononadecino[12,11-b]isoquinoline-10-carboxamide]
  Ki: 100 to 500 pM

## C=C[C@@H]1C[C@]1(NC(=O)[C@@H]1C[C@@H]2CN1C(=O)[C@H](C(C)(C)C)NC(=O)O[C@@H]1CCC[C@H]1CCCCCn1c(cc3cc(OC)ccc3c1=O)O2)C(=O)NS(=O)(=O)C1CC1 [(3aR,7S,10S,12R,25aR)-7-tert-butyl-N-((1R,2S)-1-{[(cyclopropylsulfonyl)amino]carbonyl}-2-vinylcyclopropyl)-16-methoxy-5,8,19-trioxo-1,2,3,3a,5,6,7,8,11,12,21,22,23,24,25,25a-hexadecahydro-10H,19H-9,12-methanocyclopenta[18,19][1,10,3,6,12]dioxatriazacyclononadecino[12,11-b]isoquinoline-10-carboxamide]
  Ki: < 100 pM

## C=C[C@@H]1C[C@]1(NC(=O)[C@@H]1C[C@@H]2CN1C(=O)[C@H](C1CCCC1)NC(=O)O[C@@H]1CCC[C@H]1CCCCCn1c(nc3cc(Br)ccc3c1=O)O2)C(=O)NS(=O)(=O)C1CC1 [(3aR,7S,10S,12R,25aR)-16-bromo-7-cyclopentyl-N-((1R,2S)-1-{[(cyclopropylsulfonyl)amino]carbonyl}-2-vinylcyclopropyl)-5,8,19-trioxo-1,2,3,3a,5,6,7,8,11,12,21,22,23,24,25,25a-hexadecahydro-10H,19H-9,12-methanocyclopenta[18,19][1,10,3,6,12]dioxatriazacyclononadecino[11,12-b]quinazoline-10-carboxamide]
  Ki: 100 to 500 pM

## CC[C@@H]1C[C@]1(NC(=O)[C@@H]1C[C@@H]2CN1C(=O)[C@H](C1CCCCC1)NC(=O)O[C@@H]1CCC[C@H]1CCCCCn1c(cc3cc(Cl)ccc3c1=O)O2)C(=O)NS(=O)(=O)C1CC1 [(3aR,7S,10S,12R,25aR)-16-chloro-7-cyclohexyl-N-((1R,2R)-1-{[(cyclopropylsulfonyl)amino]carbonyl}-2-ethylcyclopropyl)-5,8,19-trioxo-1,2,3,3a,5,6,7,8,11,12,21,22,23,24,25,25a-hexadecahydro-10H,19H-9,12-methanocyclopenta[18,19][1,10,3,6,12]dioxatriazacyclononadecino[12,11-b]isoquinoline-10-carboxamide]
  Ki: 100 to 500 pM

## C=C[C@@H]1C[C@]1(NC(=O)[C@@H]1C[C@@H]2CN1C(=O)[C@H](C1CCCCC1)NC(=O)O[C@@H]1CCC[C@H]1CCCCCn1c(cc3cc(Cl)ccc3c1=O)O2)C(=O)NS(=O)(=O)C1CC1 [(3aR,7S,10S,12R,25aR)-16-chloro-7-cyclohexyl-N-((1R,2S)-1-{[(cyclopropylsulfonyl)amino]carbonyl}-2-vinylcyclopropyl)-5,8,19-trioxo-1,2,3,3a,5,6,7,8,11,12,21,22,23,24,25,25a-hexadecahydro-10H,19H-9,12-methanocyclopenta[18,19][1,10,3,6,12]dioxatriazacyclononadecino[12,11-b]isoquinoline-10-carboxamide]
  Ki: < 100 pM

## CC[C@@H]1C[C@]1(NC(=O)[C@@H]1C[C@@H]2CN1C(=O)[C@H](C1CCCC1)NC(=O)O[C@@H]1CCC[C@H]1CCCCCn1c(nc3cc(Cl)ccc3c1=O)O2)C(=O)NS(=O)(=O)C1CC1 [(3aR,7S,10S,12R,25aR)-16-chloro-7-cyclopentyl-N-((1R,2R)-1-{[(cyclopropylsulfonyl)amino]carbonyl}-2-ethylcyclopropyl)-5,8,19-trioxo-1,2,3,3a,5,6,7,8,11,12,21,22,23,24,25,25a-hexadecahydro-10H,19H-9,12-methanocyclopenta[18,19][1,10,3,6,12]dioxatriazacyclononadecino[11,12-b]quinazoline-10-carboxamide]
  Ki: 100 to 500 pM

## CC[C@@H]1C[C@]1(NC(=O)[C@@H]1C[C@@H]2CN1C(=O)[C@H](C1CCCC1)NC(=O)O[C@@H]1CCC[C@H]1CCCCCn1c(cc3cc(Cl)ccc3c1=O)O2)C(=O)NS(=O)(=O)C1CC1 [(3aR,7S,10S,12R,25aR)-16-chloro-7-cyclopentyl-N-((1R,2R)-1-{[(cyclopropylsulfonyl)amino]carbonyl}-2-ethylcyclopropyl)-5,8,19-trioxo-1,2,3,3a,5,6,7,8,11,12,21,22,23,24,25,25a-hexadecahydro-10H,19H-9,12-methanocyclopenta[18,19][1,10,3,6,12]dioxatriazacyclononadecino[12,11-b]isoquinoline-10-carboxamide]
  Ki: 100 to 500 pM

## C=C[C@@H]1C[C@]1(NC(=O)[C@@H]1C[C@@H]2CN1C(=O)[C@H](C1CCCC1)NC(=O)O[C@@H]1CCC[C@H]1CCCCCn1c(nc3cc(Cl)ccc3c1=O)O2)C(=O)NS(=O)(=O)C1CC1 [(3aR,7S,10S,12R,25aR)-16-chloro-7-cyclopentyl-N-((1R,2S)-1-{[(cyclopropylsulfonyl)amino]carbonyl}-2-vinylcyclopropyl)-5,8,19-trioxo-1,2,3,3a,5,6,7,8,11,12,21,22,23,24,25,25a-hexadecahydro-10H,19H-9,12-methanocyclopenta[18,19][1,10,3,6,12]dioxatriazacyclononadecino[11,12-b]quinazoline-10-carboxamide]
  Ki: < 100 pM

## C=C[C@@H]1C[C@]1(NC(=O)[C@@H]1C[C@@H]2CN1C(=O)[C@H](C1CCCC1)NC(=O)O[C@@H]1CCC[C@H]1CCCCCn1c(cc3cc(Cl)ccc3c1=O)O2)C(=O)NS(=O)(=O)C1CC1 [(3aR,7S,10S,12R,25aR)-16-chloro-7-cyclopentyl-N-((1R,2S)-1-{[(cyclopropylsulfonyl)amino]carbonyl}-2-vinylcyclopropyl)-5,8,19-trioxo-1,2,3,3a,5,6,7,8,11,12,21,22,23,24,25,25a-hexadecahydro-10H,19H-9,12-methanocyclopenta[18,19][1,10,3,6,12]dioxatriazacyclononadecino[12,11-b]isoquinoline-10-carboxamide]
  Ki: < 100 pM

## C=C[C@@H]1C[C@]1(NC(=O)[C@@H]1C[C@@H]2CN1C(=O)[C@H](C1CCCC1)NC(=O)O[C@@H]1CCC[C@H]1CCCCCCn1c(cc3ccccc3c1=O)O2)C(=O)NS(=O)(=O)C1CC1 [(3aR,7S,10S,12R,26aR)-7-cyclopentyl-N-((1R,2S)-1-{[(cyclopropylsulfonyl)amino]carbonyl}-2-vinylcyclopropyl)-5,8,19-trioxo-2,3,3a,5,6,7,8,11,12,21,22,23,24,25,26,26a-hexadecahydro-1H,10H,19H-9,12-methanocyclopenta[19,20][1,10,3,6,12]dioxatriazacycloicosino[12,11-b]isoquinoline-10-carboxamide]
  Ki: 100 to 500 pM

## CC[C@@H]1C[C@]1(NC(=O)[C@@H]1C[C@@H]2CN1C(=O)[C@H](C(C)(C)C)NC(=O)O[C@@H]1CCC[C@H]1CCCCCCn1c(cc3ccccc3c1=O)O2)C(=O)NS(=O)(=O)C1CC1 [(3aR,7S,10S,12R,26aR)-7-tert-butyl-N-((1R,2R)-1-{[(cyclopropylsulfonyl)amino]carbonyl}-2-ethylcyclopropyl)-5,8,19-trioxo-2,3,3a,5,6,7,8,11,12,21,22,23,24,25,26,26a-hexadecahydro-1H,10H,19H-9,12-methanocyclopenta[19,20][1,10,3,6,12]dioxatriazacycloicosino[12,11-b]isoquinoline-10-carboxamide]
  Ki: 1000 to 5000 pM

## C=C[C@@H]1C[C@]1(NC(=O)[C@@H]1C[C@@H]2CN1C(=O)[C@H](C(C)(C)C)NC(=O)O[C@@H]1CCC[C@H]1CCCCCCn1c(cc3ccccc3c1=O)O2)C(=O)NS(=O)(=O)C1CC1 [(3aR,7S,10S,12R,26aR)-7-tert-butyl-N-((1R,2S)-1-{[(cyclopropylsulfonyl)amino]carbonyl}-2-vinylcyclopropyl)-5,8,19-trioxo-2,3,3a,5,6,7,8,11,12,21,22,23,24,25,26,26a-hexadecahydro-1H,10H,19H-9,12-methanocyclopenta[19,20][1,10,3,6,12]dioxatriazacycloicosino[12,11-b]isoquinoline-10-carboxamide]
  Ki: 100 to 500 pM

## CC[C@@H]1C[C@]1(NC(=O)[C@@H]1C[C@@H]2CN1C(=O)[C@H](C(C)(C)C)NC(=O)O[C@H]1CCC[C@@H]1CCCCCCn1c(cc3ccccc3c1=O)O2)C(=O)NS(=O)(=O)C1CC1 [(3aS,7S,10S,12R,26aS)-7-tert-butyl-N-((1R,2R)-1-{[(cyclopropylsulfonyl)amino]carbonyl}-2-ethylcyclopropyl)-5,8,19-trioxo-2,3,3a,5,6,7,8,11,12,21,22,23,24,25,26,26a-hexadecahydro-1H,10H,19H-9,12-methanocyclopenta[19,20][1,10,3,6,12]dioxatriazacycloicosino[12,11-b]isoquinoline-10-carboxamide]
  Ki: 1000 to 5000 pM

## C=C[C@@H]1C[C@]1(NC(=O)[C@@H]1C[C@@H]2CN1C(=O)[C@H](C(C)(C)C)NC(=O)O[C@H]1CCC[C@@H]1CCCCCCn1c(cc3ccccc3c1=O)O2)C(=O)NS(=O)(=O)C1CC1 [(3aS,7S,10S,12R,26aS)-7-tert-butyl-N-((1R,2S)-1-{[(cyclopropylsulfonyl)amino]carbonyl}-2-vinylcyclopropyl)-5,8,19-trioxo-2,3,3a,5,6,7,8,11,12,21,22,23,24,25,26,26a-hexadecahydro-1H,10H,19H-9,12-methanocyclopenta[19,20][1,10,3,6,12]dioxatriazacycloicosino[12,11-b]isoquinoline-10-carboxamide]
  Ki: 500 to 1000 pM
